Experimental data: US20220062299A1, “USE OF GLUCOCORTICOID STEROIDS IN PREVENTING AND TREATING CONDITIONS OF MUSCLE WASTING, AGING AND METABOLIC DISORDER” (NORTHWESTERN UNIVERSITY, priority 2018, published 2022)

Tested on: mdx mice
Experiment: Morbidity, muscle mass, muscle function, plethysmography, echocardiography, mdx mice, 40 weeks
Assay type: in vivo, mouse
Details: weekly prednisone
Description: Histology. Excised tissues (muscles, omental fat, heart) were placed in 10% formaldehyde (Cat #245-684; Fisher Scientific, Waltham, Mass.) for histologic processing. Seven μm sections from the center of paraffin-embedded muscles were stained with hematoxylin and eosin (H&E; cat #12013B, 1070C; Newcomer Supply, Middleton, Wis.) and Masson's trichrome (Cat #HT-15; Sigma-Aldrich; St. Louis, Mo.). Myofiber/adipocyte CSA quantitation was conducted on 400 myofibers/adipocytes per tissue per mouse. Imaging was performed using a Zeiss Axio Observer A1 microscope, using 10× and 20× (short-range) objectives. Brightfield pictures were acquired via Gryphax software (version 1.0.6.598; Jenoptik, Jena, Germany). Area quantitation was performed by means of ImageJ (Schneider et al., 2012). Sample processing, imaging and CSA quantitation were conducted blinded to treatment groups.
Muscle function, whole-body plethysmography, echocardiography. Forelimb grip strength was monitored using a meter (Cat #1027SM; Columbus Instruments, Columbus, Ohio) blinded to treatment groups. Animals performed ten pulls with 5 seconds rest on a flat surface between pulls. Immediately before sacrifice, in situ tetanic force from tibialis anterior muscle was measured using a Whole Mouse Test System (Cat #1300A; Aurora Scientific, Aurora, ON, Canada) with a 1N dual-action lever arm force transducer (3000-LR, Aurora Scientific, Aurora, ON, Canada) in anesthetized animals (0.8 I/min of 1.5% isoflurane in 100% O2). […] Time of contraction was assessed as time to max tetanic value within the 0.0-0.5 sec range of each tetanic contraction, while time of relaxation was assessed as time to 90% min tetanic value within the 0.5-0.8 sec range of every tetanus. […] Data was recorded for a total of 15 minutes broken into 3 consecutive 5-minute periods. […] Cardiac function was assessed by echocardiography, which was conducted under anesthesia (0.8 L/min of 1.5% vaporized isoflurane in 100% O2) on mice between 2 and 5 days before sacrifice. […]

In the case of `C[C@]12C=CC(=O)C=C1CC[C@@H]1[C@@H]2C(=O)C[C@@]2(C)[C@H]1CC[C@]2(O)C(=O)CO` [prednisone, Prednisone], the morbidity (mdx male mice, 40 weeks from 6 weeks of age) is reported as “improved”, the “muscle mass and force” value (mdx mice, 40 weeks) is reported as “increased” and the “performance of limb muscles, respiratory muscles, and heart” value (mdx mice, 40 weeks) is reported as “improved”.
